The record followed here is US20120016119A1, “NOVEL PYRROLO(2,3-d)PYRIMIDINE COMPOUND” (priority 2009, published 2012).

What is called EC50 is the concentration that produces a half-maximal response. Read a high EC50 as lower potency in that assay.

Assay [1] addresses T1, human GPR119 (Homo sapiens, UniProt Q8TDV5).
T1 construct: expressed in transfected cells; host or cells: CHO cells (LM-3 mock cells carrying luciferase reporter pLG3-CRE6-CRE-VIP); resulting line L8-18
T1 sequence (Q8TDV5 1-335): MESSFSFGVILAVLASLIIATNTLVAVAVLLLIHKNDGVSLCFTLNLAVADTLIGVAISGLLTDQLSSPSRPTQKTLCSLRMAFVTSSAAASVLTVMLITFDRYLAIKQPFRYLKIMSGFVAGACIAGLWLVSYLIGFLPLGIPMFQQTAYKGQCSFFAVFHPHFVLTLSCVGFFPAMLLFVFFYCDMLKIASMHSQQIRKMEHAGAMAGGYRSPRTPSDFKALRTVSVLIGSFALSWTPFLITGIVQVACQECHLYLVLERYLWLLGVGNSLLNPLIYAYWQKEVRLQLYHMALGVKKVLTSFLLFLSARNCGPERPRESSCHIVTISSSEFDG
The assay can be described thus: GPR119 agonistic activity: cAMP production in human GPR119-expressed CHO cells (HTRF cAMP kit). The class given is cell-based. The conditions noted are these: human GPR119-expressed CHO cells (L8-18), 37° C. for 30 minutes, 500 μM IBMX. As for the experimental part: The present experiment is directed to evaluate GPR119 agonistic activity (in vitro) of test compounds by adding the compounds to human GPR119-expressed CHO cells to determine cAMP production of the cells.
Human GPR119-expressed CHO cells (L8-18) were prepared by introducing an expression vector pMSF1-GPR119 (Geneticin-resistance) carrying human GPR119 genes into CHO cells (LM-3; Mock cells) wherein lusiferase expression vector pLG3-CRE6-CRE-VIP (Hygromycin B-resistance) were introduced according to the known method (The Journal of Biological Chemistry Vol. 274 (34), pp. 23940-23947).
Cryopreserved L8-18 cells were melted, and then suspended into 9-fold amounts of assay buffer and centrifuged (1000 rpm, 5 minutes) at room temperature. The supernatant was removed, and then the precipitated cells were resuspended into assay buffer (4 mL). Thereto was added assay buffer which contained IBMX (manufactured by Sigma, #17018-1G), and 7.5×10^4 cells/mL of cell suspension was prepared. The cell suspension was let stand at room temperature for 15 minutes, and then to each well of 96 half well white plate (manufactured by Corning Incorporated, #3693) were added the cell suspension (20 μL) and a solution of a test compound or AR231453 (5 μL; a total of 25 (final concentration: 1500 cells/well, 500 μM IBMX, 1% dimethylsulfoxide). The mixture was incubated at 37° C. for 30 minutes, and then to each well were added a 20-fold diluted solution (each 12.5 μL/well) of cAMP-d2 and Anti cAMP-Cryptate of HTRF cAMP kit (manufactured by Cisbio, #62AM4PEC). The mixture was stirred, and then was let stand for 1 hour under light shielding. A fluorescence intensity was measured by time-resolved fluorescence mode (Ex: 320 nm, Em: 665 nm, 620 nm) of Microplate Reader (ARVO or SpectraMax M5e). In ARVO, Ratios [Ratio=(665 nm/620 nm)×10^4)] of cAMP-d2 to Anti cAMP-Cryptate were calculated from the resulting fluorescence intensity, and cAMP concentrations of each well were calculated from cAMP standard curve prepared by the Ratios and GraphPad Prism. In SpectraMax M5e, cAMP concentrations of each well were calculated on the basis of a standard curve prepared by the resulting fluorescence intensity and Softmax Pro.
EC50 of test compounds were calculated by GraphPad Prism.

The test system of assay [2] is C57BL/6N male mice. Nature of the assay: Inhibitory effect on increased blood glucose after oral glucose load in fasted mice. The conditions noted are these: one hour before glucose load (3 g/kg, p.o.), C57BL/6N male mice fasted 21 hours. The format is in vivo. As for the experimental part: C57BL/6N male mice was fasted for 21 hours, and then a stratified randomization allocation was carried out by EXSUS Ver7.6 NP (Arm Systex Co., Ltd.) based on body weights (n=8). Vehicle (solvent: 0.1% Tween 80/0.5% hydroxypropyl methylcellulose) (control group) or a suspended solution of a test compound in the vehicle (test compound group) was orally administered to the mice, and a glucose load (3 g/kg, p.o.) was carried out one hour after administration of a test compound. Blood samplings from the test mice were carried out at each time point of just before administration of drug (−60 min), immediately before glucose load (0 min), 30 minutes (30 min), 60 minutes (60 min) and 120 minutes (120 min) after glucose load. Blood glucose levels at each time point were measured by glucose CII-Test Wako (manufactured by Wako Pure Chemical Industries, Ltd.), AUC (0-120 min) was calculated in each administration group on the basis of the measured value, and evaluated by time-dependent variance analysis and Student's t-Test using EXSUS Ver7.6NP (Arm Systex Co., Ltd.).
An inhibitory effect on increased blood glucose of each test compound (A ratio value of AUC (0-120 min) of the test compound group in case that AUC (0-120 min) of the control group is 100) is shown in the following Table 36.

Bounds are passed on as bounds.

In assay [1], `CCc1cnc(N2CCC(n3cc(F)c4c(Nc5ccc(C(=O)N6CC[C@@H](O)C6)cc5F)ncnc43)CC2)nc1` [Example Compound 61] had an EC50 of less than 1000 nM. In addition, the “Inhibitory Effect on Increased Blood Glucose (ratio value of AUC (0-120 min) of test compound group, control group = 100)” value in assay [2] (10 mg/kg orally) was determined as 85.

As to `CCc1cnc(N2CCC(n3cc(F)c4c(Nc5ccc(C(=O)N6CC[C@H](O)C6)cc5F)ncnc43)CC2)nc1` [Example Compound 62], the EC50 in assay [1] was less than 1000 nM. In addition, the “Inhibitory Effect on Increased Blood Glucose (ratio value of AUC (0-120 min) of test compound group, control group = 100)” value in assay [2] (10 mg/kg orally) came to 86.

In assay [1], `CCc1cnc(N2CCC(n3cc(F)c4c(Nc5ccc(C(=O)N(C)CCCO)cc5F)ncnc43)CC2)nc1` [Example Compound 63] displayed an EC50 of less than 1000 nM. Further, the “Inhibitory Effect on Increased Blood Glucose (ratio value of AUC (0-120 min) of test compound group, control group = 100)” value in assay [2] (10 mg/kg orally) is 89.

In turn, `CC(C)Oc1cnc(N2CCC(n3cc(F)c4c(Nc5ccc(C(=O)N(C)CCO)cc5F)ncnc43)CC2)nc1` [Example Compound 153] yielded an EC50 in assay [1] of less than 1000 nM. The “Inhibitory Effect on Increased Blood Glucose (ratio value of AUC (0-120 min) of test compound group, control group = 100)” value in assay [2] (3 mg/kg orally) worked out at 84.
